{
  "source": "patent US20250026796A1",
  "about": "(priority 2022, published 2025)",
  "key": {"[1]": {"conditions": "mouse, in vivo"}, "[2]": {"conditions": "mouse"}, "SARS-CoV-2 E (2E) [3]": {"molecular_target": "T1, SARS-CoV-2 E (2E) (Severe acute respiratory syndrome coronavirus 2, UniProt P0DTC4)", "T1 sequence (P0DTC4 whole entry, looked up)": "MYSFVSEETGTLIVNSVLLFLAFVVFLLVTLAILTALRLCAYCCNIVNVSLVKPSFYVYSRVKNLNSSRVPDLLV", "assay_type": "cell-based"}, "HCoV-NL63 E protein [4]": {"molecular_target": "T2, HCoV-NL63 E protein (Human coronavirus NL63, UniProt Q6Q1S0)", "T2 sequence (Q6Q1S0 whole entry, looked up)": "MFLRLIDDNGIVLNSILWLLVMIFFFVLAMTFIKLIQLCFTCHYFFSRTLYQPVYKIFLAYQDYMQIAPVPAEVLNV", "assay_type": "cell-based", "conditions": "construct co-transfection, HEK 293T"}, "HCoV-NL63 E protein [5]": {"molecular_target": "T2, HCoV-NL63 E protein", "assay_type": "cell-based", "conditions": "construct co-transfection, NIH 3T3", "description": "(§1) For the imaging experiments in FIGS. 1a-1e and 7a-7f, NIH 3T3 cells were plated at a cell density of 2.5×10^5 cells/ml. The following day, the cells were transfected using Lipofectamine 3000 reagents (Thermo-Fisher, #L3000001). 4 μg of plasmid were mixed into 125 μL of serum-free OptiMEM with 5 μL of P3000 reagent. This was then added to another 125 μL of serum-free OptiMEM containing 7.5 μL of Lipofectamine 3000. Plasmid/P3000-lipofectamine complex was incubated for 15 minutes at room temperature, and then added to the plate. The medium was replaced 20-24 h after transfection, and 1 μM of Lysosensor Green DND-189 (Thermo-Fisher, L7535) was added. The cells were incubated for 30 minutes in a 37° C., 5% CO2 incubator. The medium was replaced one final time prior to imaging. The live cell imaging was conducted on a customized/automated fluorescence microscope (Ti—U, Nikon) using an environmental chamber (TOKAI) and the culture medium to maintain normal cell culture conditions (37° C., 5% CO2, 20% O2). […] Fluorescence quantification and analysis was performed with ImageJ software and Prism 7/8/9 (GraphPad). Representative images were also gathered on a Leica DMi8 confocal microscope. The following peptides (>95% purity) were synthesized by Thermo-Fisher/Pierce: […]"}, "MERS-CoV E protein": {"molecular_target": "MERS-CoV E protein (Middle East respiratory syndrome-related coronavirus, UniProt K9N5R3)", "sequence (K9N5R3 whole entry, looked up)": "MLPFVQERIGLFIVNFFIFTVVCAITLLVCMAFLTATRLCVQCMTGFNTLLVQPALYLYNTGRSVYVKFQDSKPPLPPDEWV", "assay_type": "cell-based"}, "SARS-CoV-2 E (2E) [6]": {"molecular_target": "T1, SARS-CoV-2 E (2E)"}, "2E protein": {"molecular_target": "2E protein (Severe acute respiratory syndrome coronavirus 2, UniProt P0DTC4)", "sequence (P0DTC4 whole entry, looked up)": "as the sequence (P0DTC4 whole entry, looked up) above"}, "HCoV-HKU1 E protein": {"molecular_target": "HCoV-HKU1 E protein (Human coronavirus HKU1, UniProt Q5MQC8)", "sequence (Q5MQC8 whole entry, looked up)": "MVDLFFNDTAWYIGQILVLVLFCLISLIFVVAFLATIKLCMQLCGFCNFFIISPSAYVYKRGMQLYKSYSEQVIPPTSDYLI", "assay_type": "cell-based", "conditions": "construct co-transfection, NIH 3T3", "description": "as §1"}},
  "note": "pIC50: −log10 of the molar value. Where no end group is shown, it is not given here.",
  "data": [
    {"substance": "GRKKRRQRRRPPQ-MYSFVSDDTGTLIVNSVL-L[C]AlexaFluo594 [TAT-MY18-2ED-Alexa Fluor 594]", "values": [
      {"measurement": "Penetration into cells", "setting": "Vero-E6 cells", "value": "can penetrate into these cells"},
      {"measurement": "Detection of fluorescent peptide in nasal tissues", "setting": "[1]", "value": "can permeate and is detectable in mouse nasal tissues"},
      {"measurement": "Detection of fluorescent peptide in lung tissues", "setting": "[1]; iv", "value": "can permeate and is detectable in mouse lung tissues"},
      {"measurement": "Cell-penetrating \"on\" kinetics", "setting": "NIH 3T3 cells", "value": "faster cell-penetrating than N-terminal version"}
    ]},
    {"substance": "GRKKRRQRRRPPQMYSFVSDDTGTLIVNSVL [iPep-SARS2-E]", "values": [
      {"measurement": "Toxicity in vivo", "setting": "[2]", "value": "no obvious toxicity"},
      {"measurement": "Body weight", "setting": "[2]; in vivo", "value": "did not find that there are differences"},
      {"measurement": "C5a (inflammation marker)", "setting": "[2]; in vivo", "value": "did not find that there are differences"},
      {"measurement": "Cxc112 (inflammation marker)", "setting": "[2]; in vivo", "value": "did not find that there are differences"},
      {"measurement": "pIC50", "setting": "SARS-CoV-2 WA1 virus; WA1 virus", "value": "~6.70"}
    ]},
    {"substance": "GRKKRRQRRRPPQMYSFVSEETGTLIVNSVL [TAT-MY18]", "values": [
      {"measurement": "Effect of synthetic peptide on 2E in DND-189-based pH imaging", "setting": "SARS-CoV-2 E (2E) [3]", "value": "effective cell-penetrating peptide"},
      {"measurement": "Relative fluorescent intensity of DND-189 dye compared to mock", "setting": "SARS-CoV-2 E (2E) [3]", "value": "not different from mock"}
    ]},
    {"substance": "MFLRLIDDNGIVLNSILW [HCoV-NL63 MY18 WT]", "values": [
      {"measurement": "Relative NFAT-FLuc/TK-RLuc activity (effect of NL63-E)", "setting": "HCoV-NL63 E protein [4]", "value": "could significantly reduce the effect of each E on NFAT/AP-1 reporter"}
    ]},
    {"substance": "MFLRLIEEDGIVLNSILW [HCoV-NL63 MY18 2DE & N9D]", "values": [
      {"measurement": "Relative NFAT-FLuc/TK-RLuc activity (effect of NL63-E)", "setting": "HCoV-NL63 E protein [4]", "value": "effective to inhibit the cellular toxicity"},
      {"measurement": "DND-189 fluorescence (proton homeostasis), HCoV-NL63 E", "setting": "HCoV-NL63 E protein [5]", "value": "could significantly rescue the phenotypes in proton homeostasis"}
    ]},
    {"substance": "MLPFVQERIGLFIVNFFI [MERS-CoV MY18 WT]", "values": [
      {"measurement": "Relative NFAT-FLuc/TK-RLuc activity (effect of MERS-E)", "setting": "MERS-CoV E protein", "value": "could significantly reduce the effect of each E on NFAT/AP-1 reporter"}
    ]},
    {"substance": "MYSFVSDDTGTLIVNSVL [MY18-2ED]", "values": [
      {"measurement": "Relative NFAT-FLuc/TK-RLuc activity (effect of 2E on NFAT/AP-1 pathway)", "setting": "SARS-CoV-2 E (2E) [6]", "value": "significantly improves the inhibitory effect"}
    ]},
    {"substance": "MYSFVSEETGTLIVNSVL [MY18]", "values": [
      {"measurement": "Relative NFAT-FLuc/TK-RLuc activity (effect of 2E on NFAT/AP-1 pathway)", "setting": "SARS-CoV-2 E (2E) [6]", "value": "significantly suppresses the effect of 2E on the NFAT/AP-1 pathway"},
      {"measurement": "Effect of synthetic peptide on 2E in DND-189-based pH imaging", "setting": "SARS-CoV-2 E (2E) [3]", "value": "does not have any effect on 2E"},
      {"measurement": "Inhibition of viral toxicity (cytopathic effect)", "setting": "SARS-CoV-2 WA1 virus", "value": "moderate inhibitory effect on the virus"},
      {"measurement": "Co-localization with 2E proteins", "setting": "2E protein", "value": "co-localized with 2E proteins"}
    ]},
    {"substance": "RQIKIWFQNRRMKWKKMYSFVSEETGTLIVNSVL [Pen-MY18]", "values": [
      {"measurement": "Relative fluorescent intensity of DND-189 dye compared to mock", "setting": "SARS-CoV-2 E (2E) [3]", "value": "significantly lower than mock"}
    ]},
    {"substance": "RRRRRRMYSFVSEETGTLIVNSVL [6Arg-MY18]", "values": [
      {"measurement": "Relative fluorescent intensity of DND-189 dye compared to mock", "setting": "SARS-CoV-2 E (2E) [3]", "value": "significantly lower than mock"}
    ]},
    {"substance": "VDLFFNETAWYIGQILV [HCoV-HKU1 MY18 D8E]", "values": [
      {"measurement": "DND-189 fluorescence (proton homeostasis), HCoV-HKU1 E", "setting": "HCoV-HKU1 E protein", "value": "could significantly rescue the phenotypes in proton homeostasis"}
    ]}
  ]
}
